# Experimental data reported in paper PMC9654546, “Identification of an IGF2BP2-Targeted Peptide for Near-Infrared Imaging of Esophageal Squamous Cell Carcinoma” (Molecules, 2022).
# Ends that are not written are not given here. Cy5 = Cy5 fluorescent dye
# B1: P12 peptide (…) displayed on phage (peptide)
# peptide: LSMPWSPTTYAS
# Tests used:
# [1] = tested on: KYSE-30 cells; assay: Flow cytometry of cells incubated with Cy5 conjugated peptides; format: cell-based, human; settings: Cy5 conjugated peptide 50 μM, 15 min, room temperature, 10,000 gated cells
# Protocol: When the cells in the 6 cm dish were 80–90% grown, they were harvested with Accutase (Sigma-Aldrich, MO, USA) and incubated with Cy5 conjugated peptides at a concentration of 50 μM for 15 min at room temperature, protected from light. After incubation, the cells were washed 3 times with ice-cold PBS and resuspended in 200 µL of PBS. Flow cytometry was performed on a CytoFLEX LX flow cytometer (Beckman Coulter, IN, USA) and eventually, 10,000 gated cells were collected for analysis. The results were finally analyzed by flow cytometry using Flow Jo software (v7.6, BD Biosciences, OR, USA).
# [2] = tested on: KYSE-30 cells; assay: Immunofluorescence staining (confocal) of cells with Cy5 conjugated peptides; format: cell-based, human; settings: IGF2BP2-positive KYSE-30 cells, fixed and permeabilised, Cy5 conjugated peptide 80 μM overnight at 4 °C
# Protocol: Approximately 5 × 10^4 cells were seeded onto fibronectin-coated coverslips in 24-well plates and fixed with 4% paraformaldehyde until the cells reached about 50% confluence. After permeabilization with 0.5% Triton X-100 (Millipore, MA, USA) for 10 min, the cells were blocked with 5% BSA for 0.5 h and subsequently incubated with Cy5 conjugated peptides at a concentration of 80 μM overnight at 4 °C. The next day, 1 μg/mL of diaminophenyl indole (DAPI) was added to stain the nucleus after washing with phosphate-buffered saline (PBS). Thereafter, the coverslips were mounted with ProLong Gold anti-fade (Invitrogen P26930, CA, USA), and the visualizations were conducted using confocal laser-scanning microscopy (Zeiss LSM880, Oberkochen, Germany).
# [3] = tested on: KYSE-30 xenografts; assay: Near-infrared fluorescence imaging and ex vivo biodistribution in KYSE-30 bearing xenograft models; set-up: species or system mice
# Protocol: Human esophageal cancer cell lines EC-9706, EC-109, and TE-1 were acquired from the Institute of Basic Medical Science, Chinese Academy of Medical Sciences, whereas KYSE-30, KYSE-410, KYSE-450, and KYSE-520 were obtained from the DSMZ (Deutsche Sammlung von Mikroorganismen und Zellkulturen). All cells were maintained in an incubator containing a humid atmosphere of 5% CO2 at 37 °C. All cells were cultured in RPMI-1640 medium supplemented with 10% fetal bovine serum (FBS) and penicillin-streptomycin solution. Mice aged 4 weeks were purchased from Guangdong Medical Laboratory Animal Center (Guangdong, China). Subcutaneous tumor models were constructed by subcutaneously injection of about 1 × 10^7 cells with a 20% suspension of Matrigel (Corning, NY, USA). All animal experiments were performed under a protocol approved by the Animal Ethics Committee of The Fifth Affiliated Hospital of Sun Yat-sen University.
# Mice bearing subcutaneous esophageal tumors were injected with an equivalent of 50 μg Cy5-peptide via a tail vein. After circulation, the mice were anesthetized with isoflurane, and fluorescence images were captured at different time points of 10 min, 1 h, 2 h, 4 h, and 6 h by an IVIS Spectrum (PerkinElmer, MA, USA) with an excitation wavelength of 640 nm and an emission wavelength of 670 nm. The region of interest (ROI) was manually sketched to calculate the intensity of the fluorescence as mean fluorescence intensity (MFI). In addition, the tumors and main organs (bladder, liver, heart, lungs, stomach, spleen, skin, kidneys, colon, muscles, bones, and blood) were dissected and imaged for biodistribution analysis.
# [4] = molecular target: recombinant IGF2BP2 protein (approximately 29 kDa) (human); assay: ELISA; phage ELISA; purified IGF2BP2 protein coated on a 96-well plate, phage clones after the third round of screening, OD at 450 nm
# [5] = KYSE-30 xenograft mice, 50 μg Cy5-peptide via tail vein, ROI quantification, n = 3
# [6] = ex vivo optical imaging of tumors and main organs 2 h postinjection, 50 μg i.v., n = 3
Molecule,Peak shift in flow cytometric analysis [1],Binding / fluorescence in confocal immunocytochemistry [2],Binding to IGF2BP2-positive tumors (immunofluorescence of frozen tumor sections after imaging) ([3]; KYSE-30 tumor tissue resected after imaging),"TBRs over time [3, 5]","Time at which mean fluorescence intensity (MFI) peaked [3, 5] [h]","Tumor accumulation in NIRF imaging in comparison to C12-Cy5 ([3]; KYSE-30 xenograft mice, 50 μg Cy5-peptide via tail vein, different time points postinjection, n = 3)","Uptake in kidney relative to other organs ([3]; biodistribution, KYSE-30 xenograft mice)","Clearance route from biodistribution [3, 6]","Enrichment in KYSE-30 tumors relative to organs (biodistribution) [3, 6]",OD value (450 nm) relative to the control (times that of the control) [4]
P12-Cy5: P12 peptide conjugated to arginine-penetrating peptide (RRRRRRRR) at the C-terminus and Cy5 fluorescent group at the N-terminus (Cy5-LSMPWSPTTYASRRRRRRRR; also: linker between P12 and R8 not defined),peak shift,strong binding in the cytoplasm,strong binding,gradually increasing over time,2,significantly higher tumor accumulation,"relatively higher in the kidney than in other organs, including the tumors",prominent renal clearance,high in all organs except the urinary organs,
B1,,,,,,,,,,10
